Measured values: US20150353495A1 (PORTOLA PHARMACEUTICALS, INC., priority 2010, published 2015)

What was measured:
[1] = target: T1, full length active recombinant SYK enzyme (Homo sapiens, UniProt P43405); test: Inhibition of Syk tyrosine phosphorylation activity (LANCE TR-FRET); format: biochemical
T1 construct: full length active recombinant SYK enzyme (Millipore, Calif.); purchased Millipore
Description: This example illustrates methods for evaluating the compounds of the invention, along with results obtained for such assays. The in vitro and in vivo human Syk activities of the inventive compounds can be determined by various procedures known in the art, such as a test for their ability to inhibit the activity of human plasma Syk. […] The IC50 value is the concentration (in nM) of the compound required to provide 50% inhibition of human Syk proteolytic activity.
An in vitro assay for detecting and measuring inhibition activity against Syk is as follows:
Inhibition of Syk Tyrosine Phosphorylation Activity
Potency of candidate molecules for inhibiting Syk tyrosine phosphorylation activity is assessed by measuring the ability of a test compound to inhibit Syk-mediated tyrosine phosphorylation of a Syk-specific substrate.
SYK tyrosine phosphorylation activity is measured using the LANCE™ Technology developed by Perkin Elmer Life and Analytical Sciences (Boston, Mass.). LANCE™ refers to homogeneous time resolved fluorometry applications using techniques such as time-resolved fluorescence resonance energy transfer assay (TR-FRET) (see generally for procedures in Perkin Elmer Application Note-How to Optimize a Tyrosine Kinase Assay Using Time Resolved Fluorescence-Based LANCE Detection, wwww.perkinelmer.com/lifesciences). The assay principle involves detection of a phosphorylated substrate using energy transfer from a phosphospecific europium-labeled antibody to streptavidin-allophycocyanin as an acceptor.
To test the ability of candidate molecules to inhibit SYK tyrosine phosphorylation activity, molecules are reconstituted in 30% DMSO and serially diluted 1:3 with the final dilution containing DMSO in the absence of the candidate molecule. The final DMSO concentration in the assay is 3%. Kinase assays are performed as a two part reaction. The first reaction is a kinase reaction and which comprises of a candidate molecule, full length active recombinant SYK enzyme (Millipore, Calif.) and biotin-labeled SYK-specific substrate biotin-[…]-OH. The second reaction involves termination of the kinase reaction and the simultaneous addition of the detection reagents-europium-labeled anti-phosphotyrosine reagent (Eu-W1024-PY100, Perkin Elmer, Boston, Mass.) and Streptavidin-Allophycocyanin detection reagent (SA-APC, Prozyme, CA). The kinase reaction is performed in a black U-bottom 96-well microtitre plate. The final reaction volume is 50 μL and contains a final concentration of 1 nM active SYK enzyme, 550 nM SYK-substrate, and 100 nM ATP diluted in a buffer containing 50 mM Tris pH 7.5, 5 mM MgCl2, and 1 mM DTT. The reaction is allowed to proceed for 1 hour at room temperature. The quench buffer contains 100 mM Tris pH 7.5, 300 mM NaCl2, 20 mM EDTA, 0.02% Brij35, and 0.5% BSA. The detection reagents are added to the reaction mixture at the following dilutions-1:500 for Eu-W1024-PY100 and 1:250 for SA-APC. The kinase reaction is terminated by the addition of 50 μL quench buffer containing the detection reagents. […] Detection of the phosphorlated substrate in the absence and presence of inhibitors is measured in the TR-FRET instrument, Analyst HT (Molecular Probes, Sunnyvale, Calif.) and the condition for measurements are set up using CriterionHost Release 2.0 (Molecular Probes, Sunnyvale, Calif.). […] Inhibition of SYK-tyrosine kinase activity is calculated as the maximum response observed in the presence of inhibitor, compared to that in the absence of inhibitor. […]

[2] = target: T2, JAK1 (Homo sapiens, UniProt P23458); test: Z'-LYTE kinase assay JAK1; format: biochemical
T2 construct: 5 μl of catalytic domain recombinant Kinase enzyme+Tyr peptide substrate (Invitrogen, CA); purchased Invitrogen
Summary of the method: (§1)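 Catalytic-domain recombinant kinase was incubated with Tyr6 FRET peptide, ATP and compound (1% DMSO final) for 1 h at room temperature. Protease development followed for 1 h, cleaving only non-phosphorylated peptide. Inhibition of phosphorylation was read as coumarin/fluorescein FRET fluorescence.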

[3] = target: T3, JAK2 (Homo sapiens, UniProt O60674); test: Z'-LYTE kinase assay JAK2; format: biochemical
T3 construct: 5 μl of catalytic domain recombinant Kinase enzyme+Tyr peptide substrate (Invitrogen, CA); purchased Invitrogen
Summary of the method: as §1

[4] = target: T4, JAK3 (Homo sapiens, UniProt P52333); test: Z'-LYTE kinase assay JAK3; format: biochemical
T4 construct: 5 μl of catalytic domain recombinant Kinase enzyme+Tyr peptide substrate (Invitrogen, CA); purchased Invitrogen
Summary of the method: as §1

[5] = test system: markers of allogeneic response (interferon gamma); conditions: kidney allograft patients; cited from earlier work

T2 sequence (P23458 875-1153 limits assumed): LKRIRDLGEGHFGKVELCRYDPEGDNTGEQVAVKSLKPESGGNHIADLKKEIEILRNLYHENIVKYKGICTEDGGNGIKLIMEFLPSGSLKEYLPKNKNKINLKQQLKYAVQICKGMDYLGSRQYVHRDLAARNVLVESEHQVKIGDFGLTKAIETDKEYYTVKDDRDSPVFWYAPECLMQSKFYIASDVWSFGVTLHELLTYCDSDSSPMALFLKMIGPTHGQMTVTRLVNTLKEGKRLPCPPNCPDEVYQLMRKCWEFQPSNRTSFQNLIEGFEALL
T3 sequence (O60674 849-1124 limits assumed): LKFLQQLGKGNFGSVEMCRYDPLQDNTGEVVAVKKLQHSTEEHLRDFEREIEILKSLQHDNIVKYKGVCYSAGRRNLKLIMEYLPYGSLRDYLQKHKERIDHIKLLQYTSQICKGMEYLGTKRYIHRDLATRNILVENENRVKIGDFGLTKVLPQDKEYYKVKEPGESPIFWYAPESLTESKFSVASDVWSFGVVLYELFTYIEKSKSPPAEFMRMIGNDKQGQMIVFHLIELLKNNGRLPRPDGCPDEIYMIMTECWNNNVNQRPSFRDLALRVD
T4 sequence (P52333 822-1111 limits assumed): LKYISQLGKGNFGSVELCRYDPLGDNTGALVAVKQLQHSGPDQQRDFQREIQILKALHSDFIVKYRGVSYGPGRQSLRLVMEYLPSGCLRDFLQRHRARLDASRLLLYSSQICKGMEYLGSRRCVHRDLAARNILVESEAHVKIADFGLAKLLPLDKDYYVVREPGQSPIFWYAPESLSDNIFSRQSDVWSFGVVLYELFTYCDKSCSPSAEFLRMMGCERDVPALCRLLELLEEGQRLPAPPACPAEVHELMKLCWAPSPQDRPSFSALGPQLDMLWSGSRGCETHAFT

IC50 [1]	IC50 [2]	IC50 [3]	IC50 [4]	SMILES	markers of allogeneic response (interferon gamma) [5]
> 1 µM	> 1 µM	0.1 to 1 µM	0.001 to 0.01 µM	NC(=O)c1cnc(Nc2cccc(OCCN3CCOCC3)c2)cc1N[C@H](CO)c1ccccc1 [Example 230]	
				C[C@H]1CCN(C(=O)CC#N)C[C@H]1N(C)c1ncnc2[nH]ccc12 [CP-690,550]	can be reduced
> 1 µM	0.1 to 1 µM	0.1 to 1 µM	0.1 to 1 µM	CC(=O)N1CCN(c2ccc(Nc3ccc(C(N)=O)c(NC4CCC4)n3)cc2)CC1 [Example 1, 6-(4-(4-acetylpiperazin-1-yl)phenylamino)-2-(cyclobutylamino)nicotinamide]	
> 1 µM	> 1 µM	0.1 to 1 µM	0.001 to 0.01 µM	CC(=O)N1CCN(c2ccc(Nc3cc(N[C@H](CO)c4ccccc4)c(C(N)=O)cn3)cc2)CC1 [Example 231]	
